# Data published in PubChem BioAssay AID179 (DTP/NCI, 2004).
# “And” between values parts separate entries of the source, which are not always exact repeats. Equal values may be shown once. The source made the active and inactive calls.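 The calls were made as follows: active = compounds giving half or more protection of infected cells from virus-caused growth loss, again on retest; inactive = the rest.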
# Tested on: CEM cells HIV-1 protection, formazan growth assay
# Test: NCI AIDS Antiviral Assay
# Conditions: for IC50: measured here: growth of uninfected CEM cells
# How it was run: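 Soluble formazan readout of cell growth; CEM cells ± HIV-1; 5 drug concs. ≥50% protection → retest; ≥50% again = moderately active; reproducible 100% = confirmed active.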
Structure (SMILES),EC50 [µM],IC50,outcome
N/C(=N\NS(=O)(=O)c1ccccc1)Oc1ccc(Cl)cc1,> 398,339 µM,–
O=C(CCC(NC(=O)OCc1ccccc1)C(=O)OCc1ccccc1)Nc1ccc(OCc2ccccc2)cc1 (stereo not drawn),> 200,126 µM,–
Cc1ccc(/C([O-])=C(\C(=S)Nc2cccc(C)c2)[n+]2ccccc2)cc1,–,–,inactive
O=Nc1c(-c2ccccc2)nc2cc(-c3ccccc3)[nH]n12,> 18.2,> 18.2 µM,–
CC(=O)Nc1ccc(/C=N/NC(=S)NC2CN3CCC2CC3)cc1 (stereo not drawn),> 200,> 200 µM,–
Cc1nc(Nc2ccc([N+](=O)[O-])cc2)sc1C(/C=C/c1ccc(N(C)C)cc1)=N/NC(=O)c1ccccc1,> 13.8,> 13.8 µM,–
COc1cc(C2C3=C(CCCC3=O)N(c3ccc(C)cc3)C3=C2C(=O)CCC3)c([N+](=O)[O-])cc1OC,> 200,145 µM,–
Cc1ccc2nc(Nc3ccccc3C)c(Nc3ccccc3C)nc2c1,–,–,inactive
COc1ccc(-c2cc(-c3ccccc3)[nH]c(=S)c2C#N)cc1,> 200,67.6 µM,–
CC(C)C1NC(=O)c2ccccc2S1 (stereo not drawn),> 871,195 µM,–
CCCCNC(C)(C)C(SSSC(c1ccco1)C(C)(C)NCCCC)c1ccco1 (stereo not drawn),> 200,30.9 µM,–
CN(C)P(CCP(CCP(N(C)C)N(C)C)c1ccccc1)N(C)C,> 617,> 617 µM,–
CCN(CC)C(=O)Cn1c2c(c3ccccc31)CCCC2,> 200,138 µM,–
N/N=C1/C(=O)N(c2ccc(Cl)cc2)C(=O)C(=O)C1c1nc2ccccc2s1 (stereo not drawn),> 18.2,> 18.2 µM,–
CCOC(=O)C1=C(C)NC(C)=C(C(=O)OCC)C1c1ccc([N+](=O)[O-])s1,–,–,inactive
CCCCCCCC1(N=[N+]=[N-])C(=O)c2ccccc2N(C)C1=O (stereo not drawn),21.9,110 µM,–
Cc1ccc(/C=C2\CCCC(CN(C)C)C2=O)cc1 (stereo not drawn),> 200,0.617 µM,–
CN1C(C)(c2ccccc2)c2ccccc2S1(=O)=O (stereo not drawn),3.89,85.1 µM,–
O=C(c1ccco1)C1CC(c2ccc3ccccc3c2O)=NN1c1ccc([N+](=O)[O-])cc1[N+](=O)[O-] (stereo not drawn),> 200,15.8 µM,–
CC(=O)NNc1nc(C)c(C(/C=C/c2cccc([N+](=O)[O-])c2)=N/NC(=S)NN)s1,> 72.4,> 72.4 µM,–
Cc1ccc(S(=O)(=O)OCCOS(=O)(=O)c2ccc(C)cc2)cc1,> 36.3,> 36.3 µM,–
CC12Nc3ccccc3C1=C(c1ccccc1)CC1C(=O)OC(=O)C12 (stereo not drawn),> 15.8,> 15.8 µM,–

Structure (SMILES),EC50 [µM],IC50,outcome
CC12CCC[C@@](C)(C(=O)O)[C@H]1CCC1=CC3(CCC12)SCCS3 (stereo partly drawn),> 355,57.5 µM,–
C1=C(c2ccccc2)O[C@H](COCc2ccccc2)C(OCc2ccccc2)[C@@H]1OCc1ccccc1 (stereo partly drawn),–,–,inactive
O=[N+]([O-])c1ccc(C(O)(C#CCN2CCCC2)c2ccccc2)cc1 (stereo not drawn),> 200,> 100 µM,–
O=S1OC(c2ccccc2)(c2ccccc2)C(c2ccccc2)(c2ccccc2)O1,> 16.2,> 16.2 µM,–
COc1ccc(NC(=O)CCc2cc(C(C)(C)C)n[nH]2)cc1,> 832,> 832 µM,–
N/C(=N\N=C/c1c(O)cc(O)cc1O)NO,–,–,inactive
COC(=O)c1ncn(C2CCCCC2)c1O,> 200,> 200 µM,–
NC(=O)NCCSC1CCCCC1O (stereo not drawn),> 200,> 200 µM,–
O=C1C(=O)c2ccccc2C(O)=C1C(C1=C(O)c2ccccc2C(=O)C1=O)c1ccc(C(C2=C(O)c3ccccc3C(=O)C2=O)C2=C(O)c3ccccc3C(=O)C2=O)cc1,> 200,9.55 µM,–
Cc1ccc(S(=O)(=O)Nn2c(O)c(C#N)c(-c3ccc(N(C)C)cc3)c(C#N)c2=O)cc1,> 200,> 200 µM,–
OC1=CN=C(C2CC2)Oc2ccccc21,> 178,117 µM,–
Cc1cc(=O)oc2c(CNC(Cc3ccccc3)C(=O)O)c(O)ccc12 (stereo not drawn),> 200,> 200 µM,–
CCCCCCCCOC1OC(COC(C)=O)C(OC(C)=O)C(OC(C)=O)C1OC(C)=O (stereo not drawn),> 100,> 100 µM and 95.5 µM,–
COc1ccccc1C1c2cc3c(cc2OC(N2CCOCC2)C1C)OCO3 (stereo not drawn),> 200,15.8 µM,–
CC1=C(C)C1[N+](=O)[O-],> 200,> 200 µM,–
CC(C)(C)C(=O)OCOP(=O)(OCOC(=O)C(C)(C)C)OCC1CCC(n2ccc(=O)[nH]c2=O)O1 (stereo not drawn),3.39,72.4 µM,–
O=C(O)c1ccc(/C=N\N(CCO)C2=NCCN2)cc1,> 200,> 200 µM,–
CC(C)CCCC(C)[C@H]1CCC(C2C[C@@H](O)[C@@H]3CC(O)[C@@H](O)C[C@]3(CO)C2=O)[C@]1(C)CCO (stereo partly drawn),> 200,34.7 µM,–
Cc1nc2cn3c(c2c(=O)[nH]1)CCCCC3,> 200,> 200 µM,–
CCOP(=O)(OCC)Oc1c(OC)c2[nH]c(C(=O)OC)cc2c2c(C(=O)O)c[nH]c12,> 200,> 200 µM,–
O=c1cc(O)nc2cn[nH]n12,> 234,> 234 µM,–
COc1cc(/C=C(\C#N)C(N)=C(C#N)C#N)cc(O)c1O,> 47.9,> 47.9 µM,–
